Test results: patent US20080188563A1, “BLOOD FLUIDITY IMPROVING AGENT” (KAO CORPORATION, priority 2002, published 2008)

Tests used:
[1] = test system: stroke-prone spontaneously hypertensive rats (SHRSP/Izm, male); experiment: Evaluation of blood fluidity: whole blood transit time through microchannel array (MC-FAN) after 28 days oral administration; format: in vivo, rat; details: 50 mg/Kg/day oral; for Transit time: 7 μm microchannels, 20 cm water column
Protocol: Tests were started using stroke-prone spontaneously hypertensive rats (SHRSP/Izm, male) 6 weeks old after acclimating the rats 1 week or longer. The rats were all fed under the conditions of 20 to 26° C. temperature, 40 to 70% humidity and 12 hr. lighting time (from 6 a.m. to 6 p.m.).
The rats were administered with samples of the example of the present invention and samples of the comparative example once a day for continuous 28 days from a day when the rats reached 8 weeks of age. For administration, samples were orally administered by forced administration using a disposable polypropylene syringe attached with a metallic oral sonde. For the example, each sample contained a chlorogenic acid (supplied by Sigma Chemical Co., Ltd.) of 50 mg/Kg (body weight)/day, while the comparative example used the equal dose of injection grade water (supplied by Otsuka Pharmaceutical Co., Ltd., Tokyo, Japan) as samples. The preferred example also used the injection grade water as a medium for samples.
For feeds, the rats had been fed freely with a solid feed (CRF-1 supplied by Oriental Yeast Co., Ltd., Tokyo, Japan) for a period from the arrival to grouping of rats and with another solid feed (SP (a feed containing 0.4% common salt) supplied by the same manufacturer as above) for a period succeeding to the grouping. For drinking water, tap water was used in the period from the receipt to grouping of rats and 1% brine in the period after the grouping, respectively, for free uptake.
After administering rats with a specified sample for 28 continuous days, blood was sampled from each rat using a VENOJECT II vacuum blood collection tube of 7 mL size (available from Terumo Corporation, Tokyo, Japan) preinfused with 350 μL heparin as an anticoagulant (equivalent to 5% of whole blood). Upon sampling, the blood was agitated quickly to obtain blood samples for measurement. For blood measurement, a cellular microrheological measurement system was used (MC-FAN available from Hitachi Haramachi Electronics Co., Ltd., Ibaragi, Japan). The system incorporates an array of microchannels as a model of blood capillaries to measure the flowing characteristics of blood cells under constant differential pressure. As the model of blood capillaries, a silicon monocrystal basal plate having microchannels of 7 μm in width was used.
First, the time was measured for a 100 μL physiological saline solution to pass through the blood capillary model under differential pressure of 20 cm water column (the measured value to be used later for correction). Then the time was measured (in sec.) for a 100 μL each blood sample to pass through the blood capillary model under the same conditions. The time was measured every 10 μL fraction of sample flow. Each blood sample was microscopically observed as it flowed through the blood capillary model.

[2] = test system: stroke-prone spontaneously hypertensive rats (SHRSP/Izm, male); experiment: Evaluation of effects of improving cerebrovascular diseases: development of cerebral apoplexy, histopathological examination; format: in vivo, rat; details: 50 mg/Kg/day oral, 49 days
Protocol: Tests were started using stroke-prone spontaneously hypertensive rats (SHRSP/Izm, male) 6 weeks old after acclimating the rats I week or longer. The rats were all fed under the conditions of 20 to 26° C. temperature, 40 to 70% humidity and 12 hr. lighting time (from 6 a.m. to 6 p.m.). Rat was administered with samples of the preferred example of the present invention and samples of the comparative example once a day for continuous 49 days from a day when the rats reached 8 weeks of age. For administration, samples were orally administered by forced administration using a disposable polypropylene syringe attached with a metallic oral sonde. For the preferred example, each sample comprised a chlorogenic acid (supplied by Sigma Chemical Co., Ltd.) of 50 mg/Kg (body weight)/day, while the comparative example used the equal dose of injection grade water (supplied by Otsuka Pharmaceutical Co., Ltd., Tokyo, Japan) as samples. The preferred example also used the injection grade water as a medium for samples. For feeds, the rats were fed freely with a solid feed (CRF-1 supplied by Oriental Yeast Co., Ltd., Tokyo, Japan) for a period from the arrival to grouping of rats and with another solid feed (SP (a feed containing 0.4% common salt) supplied by the same manufacturer as above) for a period succeeding to the grouping. […]

For `O=C(/C=C/c1ccc(O)c(O)c1)O[C@@H]1C[C@](O)(C(=O)O)C[C@@H](O)[C@H]1O` [Preferred example, chlorogenic acid], the “Transit times versus comparative example (injection grade water), in words” value [1] was “shorter transit times”, the Transit time ([1]; blood volume passed 10 μL) was 4.87 s and the Transit time ([1]; blood volume passed 20 μL) was 9.67 s. For the same molecule, the Transit time ([1]; blood volume passed 30 μL) was 14.31 s, the Transit time ([1]; blood volume passed 40 μL) was 19.34 s and the Transit time ([1]; blood volume passed 50 μL) was 24.59 s. The Transit time ([1]; blood volume passed 60 μL) was 30.03 s, the Transit time ([1]; blood volume passed 70 μL) was 35.90 s and the Transit time ([1]; blood volume passed 80 μL) was 41.65 s. The Transit time ([1]; blood volume passed 90 μL) was 47.58 s, the Transit time ([1]; blood volume passed 100 μL) was 53.38 s and the “Development of cerebral apoplexy versus comparative example (injection grade water), in words” value [2] was “definitely suppressed development of cerebral apoplexy”. The “Cerebral apoplexy developed (number of rats)” value ([2]; of 10 rats used) was 3.
